Test results from US12570639B2, “Tetrahydroquinoline derivative and medicinal use thereof” (Toray Industries, Inc., priority 2020, dated 2026).

Assays:
[1] = In vitro radical scavenging action (DPPH method); details: 30 minutes at room temperature, maximum concentration 100 μmol/L
Protocol: Radical scavenging action was evaluated using the DPPH method in the compound of Comparative Example 1, which is a tetrahydroquinoxaline derivative, and in the tetrahydroquinoline derivative (I) or a pharmaceutically acceptable salt thereof. The DPPH method was performed using an antioxidant capacity measurement kit (Dojindo Laboratories).
A test compound was dissolved in DMSO, and the resulting solution was then mixed with an assay buffer and a DPPH solution, which are included in the kit, to a total volume of 200 μL to obtain a final concentration of 10% DMSO, and the reaction was allowed to proceed. Wells added with 100 μmol/L ferrostatin-1, a radical scavenger, were grouped as “control,” and wells added with not test compound were grouped as “background.” The test compound was serially diluted 3-fold starting from a maximum concentration of 100 μmol/L, and the diluted test compound (1.2, 3.7, 11.1, 33.3, or 100 μmol/L) was added and allowed to react at room temperature. Thirty minutes after the reaction, the absorbance at 517 nm was measured, and the average absorbance value was calculated (N=2). The radical scavenging action of the test compound (hereinafter referred to as radical scavenging rate, %) was calculated based on the equation 2 below. The EC50 value of the test compound was calculated from the radical scavenging rate. Radical scavenging rate (%)=[1−{(Average absorbance value at 517 nm measured when a test compound is added)−(Average absorbance value at 517 nm measured in the background)}/{(Average absorbance value at 517 nm measured in the control)−(Average absorbance value at 517 nm measured in the background)}]×100 Equation 2
A note “no detection of radical scavenging action (N.D.),” is given to compounds with a EC50 of >100 μmol/L.

[2] = test system: Human fibrosarcoma cells (HT-1080 cells); assay: In vitro inhibitory action against ferroptosis (Erastin-induced cell death, Cell Counting Kit-8); type: cell-based; details: Erastin 3 μmol/L, 24 hours
Protocol: The inhibitory action against ferroptosis of the tetrahydroquinoline derivative (I) or a pharmaceutically acceptable salt thereof was evaluated with Human fibrosarcoma cells (HT-1080 cells), by using, as an index, the inhibitory action against the cell death induced by treatment with a ferroptosis inducer, Erastin.
HT-1080 cells (ATCC) were cultured in a mixture (hereinafter referred to as vehicle) composed of DMEM/F12 (Thermo Fisher Scientific, Inc.), a final concentration of 10% fetal bovine serum (Thermo Fisher Scientific, Inc.), and a final concentration of 1% penicillin-streptomycin solution (Nacalai Tesque, Inc.). Cells were seeded into 96-well plates (Corning Inc.) at 5×10^4 cells/well and cultured overnight.
A test compound was dissolved in DMSO, and the resulting solution was diluted in the vehicle to a final concentration of 1% DMSO and then used. […] Thirty minutes after the addition of the test compound, Erastin (Cayman Chemical Co.) diluted in the vehicle at a final concentration of 3 μmol/L was added to wells. The wells added with the test compound and Erastin were grouped as “test compound,” and the wells added with no test compound and no Erastin were grouped as “background,” and the wells added with no test compound but with Erastin were grouped as “control.” Twenty-four hours after the addition of Erastin, 5 μL of Cell Counting Kit-8 (Dojindo Laboratories) was added to each well and incubated for 4 hours, and the absorbance at 450 nm was then measured for each well (N=2). […] Ferroptosis inhibition rate (%)=[1−{(Average absorbance value at 450 nm measured when a test compound is added)−(Average absorbance value at 450 nm measured in the background)}/{(Average absorbance value at 450 nm measured in the control)−(Average absorbance value at 450 nm measured in the background)}]×100 Equation 1

[3] = evaluation concentration 30 μmol/L
[4] = evaluation concentration 50 μmol/L

Row | EC50 [1] [µM] | Radical-scavenging action EC50 (μmol/L) [1] | SMILES | Ferroptosis inhibition rate (%) [2, 3] [%] | Ferroptosis inhibition rate (%) [2, 4] [%]
1 | 8.54 | exhibited radical scavenging action | c1ccc(C2CNc3ccccc3N2)cc1 (stereo not shown) [Comparative Example 1, 2-phenyl-1,2,3,4-tetrahydroquinoxaline, reference compound] |  | 
2 | > 100 |  | c1ccc([C@H]2CCc3ccccc3N2)cc1 [Example 2, (R)-2-phenyl-1,2,3,4-tetrahydroquinoline] | 117.4 | 
3 | > 100 |  | c1ccc([C@@H]2CCc3ccccc3N2)cc1 [Example 3, (S)-2-phenyl-1,2,3,4-tetrahydroquinoline] | 110.2 | 
4 | > 100 |  | CS(=O)(=O)c1ccc(C2CCc3ccccc3N2)cc1 (stereo not shown) [Example 16, 2-(4-(methylsulfonyl)phenyl)-1,2,3,4-tetrahydroquinoline] |  | 90.31
5 | > 100 |  | CC(=O)Nc1ccc(C2CCc3ccccc3N2)cc1 (stereo not shown) [Example 21, N-(4-(1,2,3,4-tetrahydroquinolin-2-yl)phenyl)acetamide] | 88.33 | 
6 | > 100 |  | Fc1ccc(C2CCc3ccccc3N2)cc1 (stereo not shown) [Example 26, 2-(4-fluorophenyl)-1,2,3,4-tetrahydroquinoline] |  | 107.7
7 | > 100 |  | FC(F)(F)c1ccc(C2CCc3ccccc3N2)cc1 (stereo not shown) [Example 29, 2-(4-(trifluoromethyl)phenyl)-1,2,3,4-tetrahydroquinoline] |  | 95.38
8 | > 100 |  | FC(F)(F)Oc1ccc(C2CCc3ccccc3N2)cc1 (stereo not shown) [Example 31, 2-(4-(trifluoromethoxy)phenyl)-1,2,3,4-tetrahydroquinoline] |  | 98.99
9 | > 100 |  | NS(=O)(=O)c1ccc(C2CCc3ccccc3N2)cc1 (stereo not shown) [Example 34, 4-(1,2,3,4-tetrahydroquinolin-2-yl)benzenesulfonamide] | 86.96 | 
10 | > 100 |  | N#Cc1ccc(C2CCc3ccccc3N2)cc1 (stereo not shown) [Example 35, 4-(1,2,3,4-tetrahydroquinolin-2-yl)benzonitrile] | 106.5 | 
11 | > 100 |  | NC(=O)c1ccc(C2CCc3ccccc3N2)cc1 (stereo not shown) [Example 37, 4-(1,2,3,4-tetrahydroquinolin-2-yl)benzamide] | 98.69 | 
12 | > 100 |  | OCc1ccc2c(c1)CCC(c1ccccc1)N2 (stereo not shown) [Example 58, (2-phenyl-1,2,3,4-tetrahydroquinolin-6-yl)methanol] | 91.37 | 
13 | > 100 |  | NC(=O)Cc1ccc2c(c1)CCC(c1ccccc1)N2 (stereo not shown) [Example 60, 2-(2-phenyl-1,2,3,4-tetrahydroquinolin-6-yl)acetamide] | 98.74 | 
14 | > 100 |  | CC(C)(C)NC(=O)Cc1ccc2c(c1)CCC(c1ccccc1)N2 (stereo not shown) [Example 61, N-(tert-butyl)-2-(2-phenyl-1,2,3,4-tetrahydroquinolin-6-yl)acetamide] | 103.9 | 
15 |  |  | CC(C)(C)NC(=O)Nc1ccc2c(c1)CCC(c1ccccc1)N2 (stereo not shown) [Example 127, 1-(tert-butyl)-3-(2-phenyl-1,2,3,4-tetrahydroquinolin-6-yl)urea] | 87.93 | 
16 |  |  | CC(C)(C)NC(=O)Nc1ccc2c(c1)CCC(c1ccccc1)N2 (stereo not shown) [Example 128, 1-(tert-butyl)-3-(2-phenyl-1,2,3,4-tetrahydroquinolin-6-yl)urea] | 91.83 | 
17 |  |  | CC(C)(C)CC(=O)Nc1ccc2c(c1)CCC(c1ccccc1)N2 (stereo not shown) [Example 129, 3,3-dimethyl-N-(2-phenyl-1,2,3,4-tetrahydroquinolin-6-yl)butanamide] | 88.31 | 
18 |  |  | CC(C)(C)CC(=O)Nc1ccc2c(c1)CCC(c1ccccc1)N2 (stereo not shown) [Example 130, 3,3-dimethyl-N-(2-phenyl-1,2,3,4-tetrahydroquinolin-6-yl)butanamide] | 104.2 | 

Row | EC50 [1] [µM] | Radical-scavenging action EC50 (μmol/L) [1] | SMILES | Ferroptosis inhibition rate (%) [2, 3] [%] | Ferroptosis inhibition rate (%) [2, 4] [%]
19 |  |  | O=C1CCc2cc(C3CCc4cc(F)ccc4N3)ccc2N1 (stereo not shown) [Example 133, 6-fluoro-1,2,3,3′,4,4′-hexahydro-[2,6′-biquinolin]-2′(1′H)-one] | 98.54 | 
20 |  |  | O=C1CCc2cc(C3CCc4ccc(F)cc4N3)ccc2N1 (stereo not shown) [Example 139, 7-fluoro-1,2,3,3′,4,4′-hexahydro-[2,6′-biquinolin]-2′(1′H)-one] | 60.63 | 
21 |  |  | N#Cc1ccc(C2CCc3ccccc3N2)cc1F (stereo not shown) [Example 141] | 59.10 | 
22 |  |  | NS(=O)(=O)c1ccc(C2CCc3cc(C(F)(F)F)ccc3N2)cc1 (stereo not shown) [Example 142, 4-(6-(trifluoromethyl)-1,2,3,4-tetrahydroquinolin-2-yl)benzenesulfonamide] | 64.86 | 
23 |  |  | O=C(Cc1ccc2c(c1)CCC(c1ccccc1)N2)NCC1CC1 (stereo not shown) [Example 153, N-(cyclopropylmethyl)-2-(2-phenyl-1,2,3,4-tetrahydroquin-olin-6-yl)acetamide] | 110.1 | 
24 |  |  | O=C(Cc1ccc2c(c1)CCC(c1ccccc1)N2)NCC1COC1 (stereo not shown) [Example 154, N-(oxetan-3-ylmethyl)-2-(2-phenyl-1,2,3,4-tetrahydroquin-olin-6-yl)acetamide] | 114.6 | 
25 |  |  | O=C(Cc1ccc2c(c1)CCC(c1ccccc1)N2)N1CCCC1 (stereo not shown) [Example 156, 2-(2-phenyl-1,2,3,4-tetrahydroquinolin-6-yl)-1-(pyrrolidin-1-yl)ethan-1-one] | 57.76 | 
26 |  |  | CNC(=O)Cc1ccc2c(c1)CCC(c1ccccc1)N2 (stereo not shown) [Example 159, N-methyl-2-(2-phenyl-1,2,3,4-tetrahydroquinolin-6-yl)acetamide] | 76.27 | 
27 |  |  | c1ccc(C2CNc3ccccc3C2)cc1 (stereo not shown) [Example 162, 3-phenyl-1,2,3,4-tetrahydroquinoline] |  | 108.4
28 |  |  | Clc1ccc2c(c1)CC(c1ccccc1)CN2 (stereo not shown) [Example 163, 6-chloro-3-phenyl-1,2,3,4-tetrahydroquinoline] | 89.32 | 
29 |  |  | Clc1ccc2c(c1)NCC(c1ccccc1)C2 (stereo not shown) [Example 164, 7-chloro-3-phenyl-1,2,3,4-tetrahydroquinoline] | 72.33 | 
30 |  |  | OCc1ccc(C2CNc3ccccc3C2)cc1 (stereo not shown) [Example 165, (4-(1,2,3,4-tetrahydroquinolin-3-yl)phenyl)methanol] | 96.77 | 
31 |  |  | NC(=O)c1ccc(C2CNc3ccccc3C2)cc1 (stereo not shown) [Example 166, 4-(1,2,3,4-tetrahydroquinolin-3-yl)benzamide] | 96.52 | 
32 |  |  | NS(=O)(=O)c1ccc(C2CNc3ccccc3C2)cc1 (stereo not shown) [Example 167, 4-(1,2,3,4-tetrahydroquinolin-3-yl)benzenesulfonamide] | 76.82 | 
33 |  |  | CC(=O)Nc1ccc(C2CNc3ccccc3C2)cc1 (stereo not shown) [Example 168, N-(4-(1,2,3,4-tetrahydroquinolin-3-yl)phenyl)acetamide] | 86.46 | 
34 |  |  | CS(=O)(=O)c1ccc(C2CNc3ccccc3C2)cc1 (stereo not shown) [Example 169, 3-(4-(methylsulfonyl)phenyl)-1,2,3,4-tetrahydroquinoline] | 85.58 | 
35 |  |  | c1cncc(C2CNc3ccccc3C2)c1 (stereo not shown) [Example 170, 3-(pyridin-3-yl)-1,2,3,4-tetrahydroquinoline] | 93.41 | 
